In US10835461B2, “Bio-active material composite, preparing method thereof and cosmetic composition containing the same” (priority 2015, dated 2020):

Assay: Stability of pure vitamin C and YHC-Vc in aqueous solution (color, pH, vitamin C content) at 50° C. in airtight container for four weeks
Type: physicochemical

pH (In 4 weeks, 50° C., airtight container): 2.52 | pH condition maintained (at 50° C. for 4 weeks): ~2 | remaining amount of vitamin C (in four weeks at 50° C. in airtight container): about 51%
Compound: O=C1O[C@H]([C@@H](O)CO)C(O)=C1O [vitamin C, ascorbic acid]
change of color (50° C., airtight glass container, four weeks, 3.0 wt % vitamin C solution or 10.0 wt % composite dispersion): abrupt change of color in the order from clear (colorless) to yellow, orange, and then red
